Measured values: patent publication US20150218534A1, “MODIFIED DNA POLYMERASE” (TOYOBO CO., LTD., priority 2012, published 2015)

B1: KOD P36K: modified KOD DNA polymerase with P36K (protein, listed as Thermococcus kodakaraensis)
chain: MILDTDYITEDGKPVIRIFKKENGEFKIEYDRTFEKYFYALLKDDSAIEEVKKITAERHGTVVTVKRVEKVQKKFLGRPVEVWKLYFTHPQDVPAIRDKIREHPAVIDIYEYDIPFAKRYLIDKGLVPMEGDEELKMLAFDIETLYHEGEEFAEGPILMISYADEEGARVITWKNVDLPYVDVVSTEREMIKRFLRVVKEKDPDVLITYNGDNFDFAYLKKRCEKLGINFALGRDGSEPKIQRMGDRFAVEVKGRIHFDLYPVIRRTINLPTYTLEAVYEAVFGQPKEKVYAEEITTAWETGENLERVARYSMEDAKVTYELGKEFLPMEAQLSRLIGQSLWDVSRSSTGNLVEWFLLRKAYERNELAPNKPDEKELARRRQSYEGGYVKEPERGLWENIVYLDFRSLYPSIIITHNVSPDTLNREGCKEYDVAPQVGHRFCKDFPGFIPSLLGDLLEERQKIKKKMKATIDPIERKLLDYRQRAIKILANSYYGYYGYARARWYCKECAESVTAWGREYITMTIKEIEEKYGFKVIYSDTDGFFATIPGADAETVKKKAMEFLKYINAKLPGALELEYEGFYKRGFFVTKKKYAVIDEEGKITTRGLEIVRRDWSEIAKETQARVLEALLKDGDVEKAVRIVKEVTEKLSKYEVPPEKLVIHEQITRDLKDYKATGPHVAVAKRLAARGVKIRPGTVISYIVLKGSGRIGDRAIPFDEFDPTKHKYDAEYYIENQVLPAVERILRAFGYRKEDLRYQKTRQVGLSAWLKPKGT

What was measured:
Format in all cases: biochemical
[1] = test system: human genomic DNA (about 1.3 kb) with dUTP added; assay: Evaluation of uracil (dUTP) sensitivity by PCR with dUTP added to the reaction; settings: for Evaluation of dUTP resisitance on a 11-point scale: closer to 0 = stronger sensitivity to dUTP, closer to 10 = lower sensitivity, summary of Examples 1 to 3; for dUTP resistance: dUTP added to 0.5, 5, 50, 100, 200 μM, about 1.3 kb, 30 cycles, 1 U enzyme
Protocol: The uracil sensitivity of the modified DNA polymerase of the present invention can be evaluated by PCR. For example, a dUTP solution is added at a final concentration of 0.5 μM to 200 μM to a common PCR reaction solution containing DNA as a template, a buffer, magnesium, dNTPs, primers, and a DNA polymerase to be evaluated, and thermal cycling is performed. After the reaction, the presence or absence of PCR products is confirmed by ethidium bromide-stained agarose electrophoresis, and the uracil sensitivity can be evaluated by the concentration of accepted dUTP. With a DNA polymerase having high uracil sensitivity, the extension reaction is inhibited by the addition of a small amount of dUTP, and PCR products cannot be confirmed. With a DNA polymerase having low uracil sensitivity, gene amplification by PCR can be confirmed without problem, even if a high concentration of dUTP is added. The modified DNA polymerase with low uracil sensitivity in the present invention refers to a DNA polymerase such that when optimum thermal cycling is performed using any primers and DNA as a template in a reaction buffer optimum for the enzyme, even if a high concentration of dUTP is added, an extension reaction is not inhibited and PCR products can be confirmed, compared to wild-type DNA polymerase, which has no mutation.
More specifically, 10× PCR buffer included in KOD-Plus-Ver. 2 (produced by Toyobo Co. Ltd.) or 10× PCR buffer included in Pfu DNA Polymerase (produced by Agilent) is used; dUTP (produced by Roche) is added to 50 μl of individual reaction solutions containing 1× PCR buffer, 1.5 mM MgSO4, dNTPs (dATP, dTTP, dCTP, and dGTP) in an amount of 0.2 mM, primers represented by SEQ ID NOs: 25 and 26 in an amount of 15 pmol for amplifying about 1.3 kb, 10 ng of human genomic DNA (produced by Roche), and 1 U of each respective enzyme, to final concentrations of 0.5, 5, 50, 100, and 200 μM. PCR is performed using a GeneAmp PCR system 9700 (Applied Biosystems) on the following schedule; preliminary reaction at 94° C. for 30 seconds, followed by 30 cycles, each cycle consisting of 98° C. for 10 seconds, 65° C. for 30 seconds, and 68° C. for 1 minute and 30 seconds. After the completion of each individual reaction, 5 μl of each of the resulting reaction solutions is subjected to agarose electrophoresis, followed by ethidium bromide staining. The uracil sensitivity can be evaluated by confirming amplified DNA fragments of about 1.3 kb under ultraviolet irradiation.
PCR was performed by the following method to evaluate uracil sensitivity. For PCR, components included in KOD-Plus-Ver. 2 (produced by Toyobo Co. Ltd.) were used. dUTP (produced by Roche) was added to 50 μl of individual reaction solutions containing 1× PCR buffer, 1.5 mM MgSO4, dNTPs (dATP, dTTP, dCTP, dGTP) in an amount of 0.2 mM, primers represented by SEQ ID NOs: 25 and 26 in an amount of 15 pmol for amplifying about 1.3 kb, 10 ng of human genomic DNA (produced by Roche), and 1 U of each respective enzyme, to final concentrations of 0.5, 5, 50, 100, and 200 μM. PCR was performed using a GeneAmp PCR system 9700 (produced by Applied Biosystems) on the following schedule: preliminary reaction at 94° C. for 30 seconds, followed by 30 cycles, each cycle consisting of 98° C. for 10 seconds, 65° C. for 30 seconds, and 68° C. for 1 minute and 30 seconds. After the completion of each individual reaction, 5 μl of each of the resulting reaction solutions was subjected to agarose electrophoresis, followed by ethidium bromide staining. Under ultraviolet irradiation, amplified DNA fragments of about 1.3 kb were confirmed. FIGS. 3, 4, 7, and 8 show the results.

482 bp of human β-globin = assay: PCR amplification of 482 bp of human β-globin with dUTP in place of dTTP; parameters: key to Results of PCR in the presence of dUTP 481 bp: A: Amplified; B: Amplified (faint band); C: Not amplified; settings: dTTP replaced by dUTP, 35 cycles
Protocol: 482 bp of human β-globin was amplified to compare the amplification difference between the case of using dTTP and the case of using dUTP in PCR, and the sensitivity to dUTP was examined. For amplification, each enzyme was used after being mixed with 1 μg of a KOD antibody per U of the enzyme. For PCR, components included in KOD-Plus-Ver. 2 (produced by Toyobo Co. Ltd.) were used. General dNTPs (dATP, dTTP, dCTP, dGTP) in an amount of 0.2 mM were added to 50 μl of individual reaction solutions, and dNTPs (dATP, dUTP, dCTP, dGTP) in an amount of 0.2 mM in which dTTP was replaced by dUTP were added to 50 μl of individual reaction solutions. The reaction solutions contained 1× PCR buffer, 1.5 mM MgSO4, primers represented by SEQ ID NOs: 27 and 28 in an amount of 15 pmol for amplifying […], 10 ng of human genomic DNA (produced by Roche), and 1 U of each respective enzyme mixed with the antibody. PCR was performed using a GeneAmp PCR system 9700 (produced by Applied Biosystems) on the following schedule: preliminary reaction at 94° C. for 2 minutes, followed by 35 cycles, each cycle consisting of 98° C. for 10 seconds and 68° C. for 1 minute. After the completion of each individual reaction, each of the resulting reaction solutions was analyzed using to a DNA-1000 kit for MultiNA (produced by Shimadzu Corporation) to confirm amplified DNA fragments. FIGS. 5 and 6 show the results.

[2] = test system: 1.3 kbp, 2.8 kbp, and 3.6 kbp of human β-globin; assay: Amplification of long-chain DNA in PCR using dUTP; parameters: key to Results of PCR in the presence of dUTP 1.3 kbp / Results of PCR in the presence of dUTP 2.8 kbp / Results of PCR in the presence of dUTP 3.6 kbp: A: Amplified; B: Amplified (faint band); C: Not amplified; settings: dTTP replaced by dUTP, 35 cycles
Protocol: Amplification of 1.3 kbp, 2.8 kbp, and 3.6 kbp of human β-globin in PCR using dUTP was compared. For amplification, each enzyme was used after being mixed with 1 μg of a KOD antibody per U of the enzyme. For PCR, components included in KOD-Plus-Ver. 2 (produced by Toyobo Co. Ltd.) were used. 50 μl of individual reaction solutions containing 1× PCR buffer, 1.5 mM MgSO4, dNTPs (dATP, dUTP, dCTP, dGTP) in an amount of 2 mM in which dTTP was replaced by dUTP, primers in an amount of 15 pmol (SEQ ID NOs: 25 and 26 for amplification of 1.3 kbp; SEQ ID NOs: 26 and 29 for amplification of 2.8 kbp; SEQ ID NOs: 30 and 31 for amplification of 3.6 kbp), 10 ng of human genomic DNA (produced by Roche), and 1 U of each respective enzyme mixed with the antibody were used. PCR was performed using a GeneAmp PCR system 9700 (Applied Biosystems) on the following schedule: preliminary reaction at 94° C. for 2 minutes, followed by 35 cycles, each cycle consisting of 98° C. for 10 seconds, 65° C. for 30 seconds, and 68° C. for about 1 minute per kbp (1 minute and 30 seconds for amplification of 1.3 kbp; 3 minutes for amplification of 2.8 kbp; 4 minutes for amplification of 3.6 kbp). As a control, amplification was also performed using Taq DNA polymerase. Taq DNA polymerase produced by Toyobo Co. Ltd. mixed with Anti-Taq High (produced by Toyobo Co. Ltd.) was used. 50 μl of a reaction solution containing 1× buffer included in Blend Taq, dNTPs (dATP, dUTP, dCTP, dGTP) in an amount of 2 mM in which dTTP was replaced by dUTP, primers in an amount of 10 pmol the same as the above), 10 ng of human genomic DNA (produced by Roche), and 2.5 U of the enzyme mixed with the antibody was used. PCR was performed using a GeneAmp PCR system 9700 (produced by Applied Biosystems) on the following schedule: preliminary reaction at 94° C. for 2 minutes, followed by 35 cycles, each cycle consisting of 94° C. for 30 seconds, 65° C. for 30 seconds, and 68° C. for about 1 minute per kbp (1 minute and 30 seconds for amplification of 1.3 kbp; 3 minutes for amplification of 2.8 kbp; 4 minutes for amplification of 3.6 kbp). After the completion of each individual reaction, 5 μl of each of the resulting reaction solutions was subjected to agarose electrophoresis, followed by ethidium bromide staining, and the amount of amplified DNA fragments was confirmed under ultraviolet irradiation. FIGS. 9 and 10 show the results.

Molecule	Evaluation of dUTP resisitance on a 11-point scale [1]	Results of PCR in the presence of dUTP 481 bp (482 bp of human β-globin)	Results of PCR in the presence of dUTP 1.3 kbp [2]	Results of PCR in the presence of dUTP 2.8 kbp [2]	Results of PCR in the presence of dUTP 3.6 kbp [2]	dUTP resistance [1] [µM]	PCR products on addition of dUTP ([1]; some amount of dUTP added)
KOD Y7A/P36R/V93K: modified KOD DNA polymerase with Y7A, P36R and V93K	0	C	C	C	C		
KOD H147E/Y7A/P36H/V93K: KOD H147E (exo(+)) mutant with Y7A, P36H and V93K	0	C	C	C	C		
KOD H147E/Y7A/P36R/V93K: KOD H147E (exo(+)) mutant with Y7A, P36R and V93K	0	C	C	C	C		
KOD H147E/P36K: KOD H147E (exo(+)) mutant with P36K	4	A				100	
KOD N210D/P36K: KOD N210D (exo(−)) mutant with P36K	8	A				>200	
KOD Y7A/P36H/V93K: modified KOD DNA polymerase with Y7A, P36H and V93K	0	C	C	C	C		
B1	3	A				100	PCR products were confirmed
